Columns and labels:
purified FGFR3 (Upstate) = biological target: T1, purified FGFR3 (Upstate) (Homo sapiens, UniProt P22607); assay: FGFR3 enzymatic assay (HTRF); assay type: biochemical
T1 construct: purchased Upstate
Method: Kinase activity assay with purified FGFR3 (Upstate) is carried out in a final volume of 10 μL containing 0.25 μg/mL of enzyme in kinase buffer (30 mM Tris-HCl pH7.5, 15 mM MgCl2, 4.5 mM MnCl2, 15 μM Na3VO4 and 50 μg/mL BSA), and substrates (5 μg/mL biotin-poly-EY(Glu, Tyr) (CIS-US, Inc.) and 3 μM ATP). Two solutions are made: the first solution of 5 μl contains the FGFR3 enzyme in kinase buffer was first dispensed into 384-format ProxiPlate® (Perkin-Elmer) followed by adding 50 nL of compounds dissolved in DMSO, then 5 μl of second solution contains the substrate (poly-EY) and ATP in kinase buffer was added to each wells. The reactions are incubated at room temperature for one hour, stopped by adding 10 μL of HTRF detection mixture, which contains 30 mM Tris-HCl pH7.5, 0.5 M KF, 50 mM ETDA, 0.2 mg/mL BSA, 15 μg/mL streptavidin-XL665 (CIS-US, Inc.) and 150 ng/mL cryptate conjugated anti-phosphotyrosine antibody (CIS-US, Inc.). After one hour of room temperature incubation to allow for streptavidin-biotin interaction, time resolved florescent signals are read on Analyst GT (Molecular Devices Corp.). IC50 values are calculated by linear regression analysis of the percentage inhibition of each compound at 12 concentrations (1:3 dilution from 50 μM to 0.28 nM).

[1] = biological target: T2, FGFR3 (Ba/F3-TEL-FGFR3 cells) (Homo sapiens, UniProt P22607); assay: FGFR3 cellular assay (Ba/F3-TEL-FGFR3 proliferation); assay type: cell-based
T2 construct: expressed in transfected cells; host or cells: Ba/F3; the other entry of the earlier key: ETV6 (P41212, Transcription factor ETV6)
Method: Compounds of the invention are tested for their ability to inhibit transformed Ba/F3-TEL-FGFR3 cells proliferation, which is depended on FGFR3 cellular kinase activity. Ba/F3-TEL-FGFR3 are cultured up to 800,000 cells/mL in suspension, with RPMI 1640 supplemented with 10% fetal bovine serum as the culture medium. Cells are dispensed into 384-well format plate at 5000 cell/well in 50 μL culture medium. Compounds of the invention are dissolved and diluted in dimethylsulfoxide (DMSO). Twelve points 1:3 serial dilutions are made into DMSO to create concentrations gradient ranging typically from 10 mM to 0.05 μM. Cells are added with 50 nL of diluted compounds and incubated for 48 hours in cell culture incubator. AlamarBlue® (TREK Diagnostic Systems), which can be used to monitor the reducing environment created by proliferating cells, are added to cells at final concentration of 10%. After additional four hours of incubation in a 37° C. cell culture incubator, fluorescence signals from reduced AlamarBlue® (Excitation at 530 nm, Emission at 580 nm) are quantified on Analyst GT (Molecular Devices Corp.). IC50 values are calculated by linear regression analysis of the percentage inhibition of each compound at 12 concentrations.

T1 sequence (P22607 23-806): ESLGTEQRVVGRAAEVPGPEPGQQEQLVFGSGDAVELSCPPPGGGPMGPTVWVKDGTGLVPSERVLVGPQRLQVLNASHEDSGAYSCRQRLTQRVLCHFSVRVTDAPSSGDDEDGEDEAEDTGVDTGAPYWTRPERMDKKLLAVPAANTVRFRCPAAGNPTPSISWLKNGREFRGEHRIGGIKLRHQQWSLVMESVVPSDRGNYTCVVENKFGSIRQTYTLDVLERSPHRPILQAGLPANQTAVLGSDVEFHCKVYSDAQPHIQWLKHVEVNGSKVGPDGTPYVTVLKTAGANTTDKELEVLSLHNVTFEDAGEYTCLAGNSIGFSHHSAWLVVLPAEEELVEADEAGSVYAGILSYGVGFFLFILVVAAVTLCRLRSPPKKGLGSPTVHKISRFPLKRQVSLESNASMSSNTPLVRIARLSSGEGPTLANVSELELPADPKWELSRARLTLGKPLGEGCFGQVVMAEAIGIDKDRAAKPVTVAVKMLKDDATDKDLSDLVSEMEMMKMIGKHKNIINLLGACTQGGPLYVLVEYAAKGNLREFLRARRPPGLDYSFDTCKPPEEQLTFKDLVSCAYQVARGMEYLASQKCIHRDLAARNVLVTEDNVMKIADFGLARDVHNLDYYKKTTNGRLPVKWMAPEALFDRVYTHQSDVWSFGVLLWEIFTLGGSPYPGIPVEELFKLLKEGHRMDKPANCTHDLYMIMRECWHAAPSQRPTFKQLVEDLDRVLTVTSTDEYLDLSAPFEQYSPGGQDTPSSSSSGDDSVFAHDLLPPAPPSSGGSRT
T2 sequence (P22607 472-761 limits assumed): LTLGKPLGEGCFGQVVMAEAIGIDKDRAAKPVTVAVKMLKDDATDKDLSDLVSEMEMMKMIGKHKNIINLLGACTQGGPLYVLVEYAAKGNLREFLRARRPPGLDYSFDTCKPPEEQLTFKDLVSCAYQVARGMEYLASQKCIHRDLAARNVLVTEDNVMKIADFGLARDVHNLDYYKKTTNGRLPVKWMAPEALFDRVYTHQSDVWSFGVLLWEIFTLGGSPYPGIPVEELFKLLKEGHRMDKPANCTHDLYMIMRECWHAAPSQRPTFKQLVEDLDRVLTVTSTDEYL

IC50 (purified FGFR3 (Upstate)): 4 nM
IC50 [1]: 40 nM
Compound: CCN1CCN(Cc2ccc(NC(=O)c3cc(Nc4nccn4-c4ncnc5[nH]ccc45)cc(OC)c3)cc2C(F)(F)F)CC1 [Compound 9, N-[4-(4-ethyl-piperazin-1-ylmethyl)-3-trifluoromethyl-phenyl]-3-methoxy-5-[1-(7H-pyrrolo[2,3-d]pyrimidin-4-yl)-1H-imidazol-2-ylamino]-benzamide]

From patent US20080188483A1, “Compounds and Compositions as Protein Kinase Inhibitors” (IRM LLC, priority 2006, published 2008)
